From US9512086B2, “Compound for promoting apoptosis of cancer cells and a pharmaceutical composition containing the same and uses thereof” (National Chiao Tung University, priority 2014, dated 2016) come the findings set out here.

For this test, the system named is A549 cell line. Description: MTT cell viability, A549 cell line. The test is classed as cell-based, human. To be noted: Homo sapiens, A549 cell line, 24 hours, MTT. As to the method:
The above cell lines were plated in 96-well plates at a density of 1×10^4 cells/well for 16 to 20 hours. […] After drug treatment, the cell lines were washed with phosphate-buffered saline (hereinafter referred to PBS), and were replaced with fresh complete RPMI-1640 medium for 2 days. Thereafter, the medium was replaced and the cells were incubated with 0.5 mg/ml of 3-(4,5-dimethylthiazol-2-yl)-2,5-diphenyltetrazolium bromide reagent (hereinafter referred to MTT, Sigma Chemical Co., St. Louis, Mo.) in complete RPMI-1640 medium for 4 hours. The viable cells converted MTT to formazan that generates a blue-purple color when dissolved in dimethyl sulfoxide (hereinafter referred to DMSO). The intensity of formazan was measured at 565 nm using a plate reader (VERSAmax, Molecular Dynamics, Sunnyvale, Calif.). The relative percentage of cell viability was calculated by dividing the absorbance of treated cells by that of the control in each experiment.
After drug treatment, the cells were washed with PBS and replaced with fresh complete RPMI-1640 medium for 2 days. Thereafter, the medium was replaced and the cells were incubated with 0.5 mg/mL of MTT reagent (Sigma Chemical Co., St. Louis, Mo.) in complete RPMI-1640 medium for 4 hours. The intensity of formazan was measured at 565 nm using a plate reader (VERSAmax, Molecular Dynamics, Sunnyvale, Calif.). The relative percentage of cell viability was calculated by dividing the absorbance of treated cells by that of the control in each experiment.

With `COC(=O)CCCC(=O)N1CCN(CCCOc2cc3c(Nc4ccc(F)c(Cl)c4)ncnc3cc2OC)CC1` [Analogue-3, methyl 5-(4-(3-(4-(3-chloro-4-fluorophenylamino)-7-methoxyquinazolin-6-yloxy)propyl)piperazin-1-yl)-5-oxopentanoate], the viability (in general, the share of living cells, or the viability signal relative to a control) at 10 µM turned out to be 99.9%; the viability at 20 µM was 94.8%; the viability at 40 µM was found to be 91.9%; the viability at 60 µM is 91.3%. The same compound gave a viability at 80 µM of 89.8%.

`COC(=O)CCCCC(=O)N1CCN(CCCOc2cc3c(Nc4ccc(F)c(Cl)c4)ncnc3cc2OC)CC1` [Analogue-4, methyl 6-(4-(3-(4-(3-chloro-4-fluorophenylamino)-7-methoxyquinazolin-6-yloxy)propyl)piperazin-1-yl)-6-oxohexanoate] came in with a viability at 10 µM of 94.6%, a viability at 20 µM of 90.4%, a viability at 40 µM of 84.3% and a viability at 60 µM of 83.3%. This compound also returned a viability at 80 µM of 79.4%.

`COC(=O)CCCCCC(=O)N1CCN(CCCOc2cc3c(Nc4ccc(F)c(Cl)c4)ncnc3cc2OC)CC1` [Analogue-5, methyl 7-(4-(3-(4-(3-chloro-4-fluorophenylamino)-7-methoxyquinazolin-6-yloxy)propyl)piperazin-1-yl)-7-oxoheptanoate] had a viability at 10 µM of 95.2%, a viability at 20 µM of 91.7%, a viability at 40 µM of 90.1% and a viability at 60 µM of 83.4%. The compound also yielded a viability at 80 µM of 82.4%.

In the case of `COC(=O)CCCCCCC(=O)N1CCN(CCCOc2cc3c(Nc4ccc(F)c(Cl)c4)ncnc3cc2OC)CC1` [Analogue-6, methyl 8-(4-(3-(4-(3-chloro-4-fluorophenylamino)-7-methoxyquinazolin-6-yloxy)propyl)piperazin-1-yl)-8-oxooctanoate], the viability at 10 µM worked out at 92%, the viability at 20 µM turned out to be 94.3%, the viability at 40 µM worked out at 90.7% and the viability at 60 µM stood at 88.5%. The same compound had a viability at 80 µM of 88.9%.

Consider `COC(=O)CCCCCCCC(=O)N1CCN(CCCOc2cc3c(Nc4ccc(F)c(Cl)c4)ncnc3cc2OC)CC1` [Analogue-7, methyl 9-(4-(3-(4-(3-chloro-4-fluorophenylamino)-7-methoxyquinazolin-6-yloxy)propyl)piperazin-1-yl)-9-oxononanoate], for which the viability at 10 µM worked out at 90.3%, the viability at 20 µM is 89.7%, the viability at 40 µM came to 85.8% and the viability at 60 µM came out at 84.8%. This compound also gave a viability at 80 µM of 80.9%.

The compound `CCOC(=O)CCC(=O)N1CCN(CCCOc2cc3c(Nc4ccc(F)c(Cl)c4)ncnc3cc2OC)CC1` [Analogue-8, ethyl 4-(4-(3-(4-(3-chloro-4-fluorophenylamino)-7-methoxyquinazolin-6-yloxy)propyl)piperazin-1-yl)-4-oxobutanoate] gave a viability at 10 µM of 77.6%, a viability at 20 µM of 70%, a viability at 40 µM of 67.4% and a viability at 60 µM of 61.6%. The same compound yielded a viability at 80 µM of 35.6%.

As to `CCCOC(=O)CCC(=O)N1CCN(CCCOc2cc3c(Nc4ccc(F)c(Cl)c4)ncnc3cc2OC)CC1` [Analogue-9, propyl 4-(4-(3-(4-(3-chloro-4-fluorophenylamino)-7-methoxyquinazolin-6-yloxy)propyl)piperazin-1-yl)-4-oxobutanoate], the viability at 10 µM was 95.1%, the viability at 20 µM was 87%, the viability at 40 µM was found to be 80.9% and the viability at 60 µM stood at 70.4%. The same compound showed a viability at 80 µM of 23.4%.

Turning to `CCCCOC(=O)CCC(=O)N1CCN(CCCOc2cc3c(Nc4ccc(F)c(Cl)c4)ncnc3cc2OC)CC1` [Analogue-10, butyl 4-(4-(3-(4-(3-chloro-4-fluorophenylamino)-7-methoxyquinazolin-6-yloxy)propyl)piperazin-1-yl)-4-oxobutanoate], the viability at 10 µM was found to be 94.4%, the viability at 20 µM amounted to 86%, the viability at 40 µM is 79.1% and the viability at 60 µM came out at 64.1%. In addition, the viability at 80 µM was found to be 36.9%.

Consider `CCCCCOC(=O)CCC(=O)N1CCN(CCCOc2cc3c(Nc4ccc(F)c(Cl)c4)ncnc3cc2OC)CC1` [Analogue-11, pentyl 4-(4-(3-(4-(3-chloro-4-fluorophenylamino)-7-methoxyquinazolin-6-yloxy)propyl)piperazin-1-yl)-4-oxobutanoate], for which the viability at 10 µM amounted to 87.1%, the viability at 20 µM was 81.2%, the viability at 40 µM was 63.6% and the viability at 60 µM was 30%. The viability at 80 µM amounted to 18.2%.

In the case of `CCCCCCOC(=O)CCC(=O)N1CCN(CCCOc2cc3c(Nc4ccc(F)c(Cl)c4)ncnc3cc2OC)CC1` [Analogue-12, hexyl 4-(4-(3-(4-(3-chloro-4-fluorophenylamino)-7-methoxyquinazolin-6-yloxy)propyl)piperazin-1-yl)-4-oxobutanoate], the viability at 10 µM is 89.3%, the viability at 20 µM worked out at 85.1%, the viability at 40 µM was found to be 74.2% and the viability at 60 µM turned out to be 63.6%. This compound yielded a viability at 80 µM of 42.9%.

`CCCCCCCOC(=O)CCC(=O)N1CCN(CCCOc2cc3c(Nc4ccc(F)c(Cl)c4)ncnc3cc2OC)CC1` [Analogue-13, heptyl 4-(4-(3-(4-(3-chloro-4-fluorophenylamino)-7-methoxyquinazolin-6-yloxy)propyl)piperazin-1-yl)-4-oxobutanoate] showed a viability at 10 µM of 89.1%, a viability at 20 µM of 79.9%, a viability at 40 µM of 59.1% and a viability at 60 µM of 35.7%. The compound also returned a viability at 80 µM of 27.2%.

On to `CCCCCCCCOC(=O)CCC(=O)N1CCN(CCCOc2cc3c(Nc4ccc(F)c(Cl)c4)ncnc3cc2OC)CC1` [Analogue-14, octyl 4-(4-(3-(4-(3-chloro-4-fluorophenylamino)-7-methoxyquinazolin-6-yloxy)propyl)piperazin-1-yl)-4-oxobutanoate], for which the viability at 10 µM came out at 87.3%, the viability at 20 µM came out at 80%, the viability at 40 µM worked out at 48.7% and the viability at 60 µM turned out to be 26%. Also, the viability at 80 µM came out at 21.7%.

Compound `CCCCCCCCCOC(=O)CCC(=O)N1CCN(CCCOc2cc3c(Nc4ccc(F)c(Cl)c4)ncnc3cc2OC)CC1` [Analogue-15, nonyl 4-(4-(3-(4-(3-chloro-4-fluorophenylamino)-7-methoxyquinazolin-6-yloxy)propyl)piperazin-1-yl)-4-oxobutanoate] came in with a viability at 10 µM of 90%, a viability at 20 µM of 79.7%, a viability at 40 µM of 17.9% and a viability at 60 µM of 10.3%. Further, the viability at 80 µM came out at 7.8%.

As for `CCCCCCCCCCOC(=O)CCC(=O)N1CCN(CCCOc2cc3c(Nc4ccc(F)c(Cl)c4)ncnc3cc2OC)CC1` [Analogue-16, decyl 4-(4-(3-(4-(3-chloro-4-fluorophenylamino)-7-methoxyquinazolin-6-yloxy)propyl)piperazin-1-yl)-4-oxobutanoate], the viability at 10 µM worked out at 95.7%, the viability at 20 µM came to 88.2%, the viability at 40 µM came to 15.5% and the viability at 60 µM was 3.9%. This compound also had a viability at 80 µM of 2%.
